In brackets after ≈: the same amount, converted by molar mass.
Experiments:
[1] = test system: Enterococcus faecium; assay: Antimicrobial activity against Enterococcus faecium isolate 7 from abdominal wound of patient by Etest
[2] = test system: Enterococcus faecium; assay: Antimicrobial activity against Enterococcus faecium isolate 2 from skin lesion of patient by Etest; format: functional
[3] = test system: Enterococcus faecium; assay: Antimicrobial activity against Enterococcus faecium isolate 5 from patient blood by Etest; format: functional
[4] = test system: Enterococcus faecium; assay: Antimicrobial activity against Enterococcus faecium isolate 6 from thigh wound of patient by Etest; format: functional; conditions: isolate 6, Thigh muscle
[5] = test system: Staphylococcus aureus; assay: microbe, parasite or virus in culture; conditions: ATCC 29213
Description: Antimicrobial activity against Staphylococcus aureus ATCC 29213 by Etest

[6] = test system: Enterococcus faecium; assay: Antimicrobial activity against Enterococcus faecium isolate 3 from abdominal wound of patient by Etest; format: functional
[7] = test system: Enterococcus faecium; assay: Antimicrobial activity against Enterococcus faecium isolate 1 from right groin wound of patient by Etest; format: functional
[8] = test system: Enterococcus faecium; assay: Antimicrobial activity against Enterococcus faecium ATCC 35667 by Etest; format: functional
[9] = test system: Enterococcus faecium; assay: Antimicrobial activity against Enterococcus faecium isolate 4 from lower extremity wound of patient by Etest; format: functional
[10] = test system: Enterococcus faecium; assay: Antimicrobial activity against Enterococcus faecium isolate 8 from right abdominal wound of patient by Etest

Structure (SMILES)	MIC [1] [µg/mL]	MIC [2] [µg/mL]	MIC [3] [µg/mL]	MIC [4] [µg/mL]	MIC [5] [µg/mL]	MIC [6] [µg/mL]	MIC [7] [µg/mL]	MIC [8] [µg/mL]	MIC [9] [µg/mL]	MIC [10] [µg/mL]
CCCCCCCCCC(=O)N[C@@H](Cc1c[nH]c2ccccc12)C(=O)N[C@H](CC(N)=O)C(=O)N[C@@H](CC(=O)O)C(=O)N[C@@H]1C(=O)NCC(=O)N[C@@H](CCCN)C(=O)N[C@@H](CC(=O)O)C(=O)N[C@H](C)C(=O)N[C@@H](CC(=O)O)C(=O)NCC(=O)N[C@H](CO)C(=O)N[C@@H]([C@H](C)CC(=O)O)C(=O)N[C@@H](CC(=O)c2ccccc2N)C(=O)O[C@@H]1C	> 16	4 (≈ 2.47 µM)	8 (≈ 4.94 µM)	16 (≈ 9.87 µM)	0.25 (≈ 0.154 µM)	16 (≈ 9.87 µM)	4 (≈ 2.47 µM)	1 (≈ 0.617 µM)	16 (≈ 9.87 µM)	16 (≈ 9.87 µM)
CN[C@H](CC(C)C)C(=O)N[C@H]1C(=O)N[C@@H](CC(N)=O)C(=O)N[C@H]2C(=O)N[C@H]3C(=O)N[C@H](C(=O)N[C@H](C(=O)O)c4cc(O)cc(O)c4-c4cc3ccc4O)[C@H](O)c3ccc(c(Cl)c3)Oc3cc2cc(c3O[C@@H]2O[C@H](CO)[C@@H](O)[C@H](O)[C@H]2O[C@H]2C[C@](C)(N)[C@H](O)[C@H](C)O2)Oc2ccc(cc2Cl)[C@H]1O [VANCOMYCIN]	> 16	< 2	> 16	> 16	–	< 2	< 2	–	> 16	> 16

From ChEMBL document CHEMBL1255266, “Mechanisms of resistance to daptomycin in Enterococcus faecium” (2008)
